Patent publication US20090068290A1, “BIFEPRUNOX DOSES FOR TREATING SCHIZOPHRENIA” (priority 2006, published 2009)
Read-outs that look alike come from different tables or passages of the source.

Columns and labels:
[1] = tested on: patients with chronic schizophrenia; experiment: PANSS total score, Clinical Study Four; assay type: in vivo, human; details: FAS; for Change from Baseline in PANSS Total Score, Difference to PBO Mean / Adjusted Mean Change from Baseline in PANSS Total Score, Least Squares Estimates Mean / PANSS total, Adjusted Mean Change from Baseline (LS mean): ANCOVA; for PANSS total, Adjusted Mean Change from Baseline (LS mean): BX20 = 20 mg, BX30 = 30 mg
Experimental: METHODOLOGY: This study was a multinational, multicenter, randomized, double-blind, parallel-group, placebo-controlled, fixed-dose study. The study consisted of a 3- to 6-day antipsychotic-free run-in period, after which patients were randomised to 6 months of double-blind treatment with fixed doses of bifeprunox (20 mg/day (BX20) or 30 mg/day (BX30)) or placebo (PBO). Patients allocated to the BX groups were up-titrated from 0.25 mg/day over 7 days (BX20) or 8 days (BX30), and then continued on these doses for the remainder of the study. […] At predetermined time points, blood samples were obtained for drug concentration analysis of BX and its major metabolites (3′- and 4′-sulfate conjugates of BX), and pharmaco-economic assessments were performed.

[2] = Pharmacokinetics of bifeprunox, pooled analysis and population PK; assay type: in vivo, human; details: for half-life: read-out: mean plasma steady-state (elimination) half-life (converted)
Source text: The objective of this study is to assess the pharmacokinetics (PK) of bifeprunox. The PK of bifeprunox in healthy subjects were investigated based on a pooled analysis of PK parameters from 21 clinical pharmacology studies. The pooled analysis included PK profiles after single and multiple doses to 132 and 399 subjects, respectively, and explored the potential effects of age, gender, body weight, and race. In addition, PK in patients with schizophrenia were investigated using a population PK approach based on samples from 376 patients in phase II studies and 434 patients in phase III studies.

For `O=c1[nH]c2cccc(N3CCN(Cc4cccc(-c5ccccc5)c4)CC3)c2o1` [Bifeprunox, 7-[4-([1,1′-biphenyl]-3-ylmethyl)-1-piperazinyl]-2(3H)-benzoxazolone], the “Change from Baseline in PANSS Total Score, Difference to PBO Mean” value (“Change from Baseline … Difference to PBO Mean” below) ([1]; Day 63, OC, listed as BX30) was −4.12, the “Adjusted Mean Change from Baseline in PANSS Total Score, Least Squares Estimates Mean” value ([1]; Day 63, POCF, listed as BX20) was −10.03 and the “Change from Baseline … Difference to PBO Mean” value ([1]; Day 63, POCF, listed as BX20) was −4.83. For the same compound, the “Adjusted Mean Change from Baseline in PANSS Total Score, Least Squares Estimates Mean” value ([1]; Day 63, POCF, listed as BX30) was −8.97, the “Change from Baseline … Difference to PBO Mean” value ([1]; Day 63, POCF, listed as BX30) was −3.77 and the “Adjusted Mean Change from Baseline in PANSS Total Score, Least Squares Estimates Mean” value ([1]; Day 90, LOCF, listed as BX20) was −2.18. The “Change from Baseline … Difference to PBO Mean” value ([1]; Day 90, LOCF, listed as BX20) was −5.85, the “Adjusted Mean Change from Baseline in PANSS Total Score, Least Squares Estimates Mean” value ([1]; Day 90, LOCF, listed as BX30) was −1.47 and the “Change from Baseline … Difference to PBO Mean” value ([1]; Day 90, LOCF, listed as BX30) was −5.14. The “Adjusted Mean Change from Baseline in PANSS Total Score, Least Squares Estimates Mean” value ([1]; Day 90, OC, listed as BX20) was −14.17, the “Change from Baseline … Difference to PBO Mean” value ([1]; Day 90, OC, listed as BX20) was −4.92 and the “Adjusted Mean Change from Baseline in PANSS Total Score, Least Squares Estimates Mean” value ([1]; Day 90, OC, listed as BX30) was −12.71. The “Change from Baseline … Difference to PBO Mean” value ([1]; Day 90, OC, listed as BX30) was −3.46, the “Adjusted Mean Change from Baseline in PANSS Total Score, Least Squares Estimates Mean” value ([1]; Day 90, POCF, listed as BX20) was −10.43 and the “Change from Baseline … Difference to PBO Mean” value ([1]; Day 90, POCF, listed as BX20) was −5.19. The “Adjusted Mean Change from Baseline in PANSS Total Score, Least Squares Estimates Mean” value ([1]; Day 90, POCF, listed as BX30) was −9.25, the “Change from Baseline … Difference to PBO Mean” value ([1]; Day 90, POCF, listed as BX30) was −4.00 and the “Adjusted Mean Change from Baseline in PANSS Total Score, Least Squares Estimates Mean” value ([1]; Day 120, LOCF, listed as BX20) was −1.20. The “Change from Baseline … Difference to PBO Mean” value ([1]; Day 120, LOCF, listed as BX20) was −6.50, the “Adjusted Mean Change from Baseline in PANSS Total Score, Least Squares Estimates Mean” value ([1]; Day 120, LOCF, listed as BX30) was −0.84 and the “Change from Baseline … Difference to PBO Mean” value ([1]; Day 120, LOCF, listed as BX30) was −6.14. The “Adjusted Mean Change from Baseline in PANSS Total Score, Least Squares Estimates Mean” value ([1]; Day 120, OC, listed as BX20) was −15.81, the “Change from Baseline … Difference to PBO Mean” value ([1]; Day 120, OC, listed as BX20) was −5.45 and the “Adjusted Mean Change from Baseline in PANSS Total Score, Least Squares Estimates Mean” value ([1]; Day 120, OC, listed as BX30) was −14.56. For the same compound, the “Change from Baseline … Difference to PBO Mean” value ([1]; Day 120, OC, listed as BX30) was −4.19, the “Adjusted Mean Change from Baseline in PANSS Total Score, Least Squares Estimates Mean” value ([1]; Day 120, POCF, listed as BX20) was −10.30 and the “Change from Baseline … Difference to PBO Mean” value ([1]; Day 120, POCF, listed as BX20) was −5.21. For the same compound, the “Adjusted Mean Change from Baseline in PANSS Total Score, Least Squares Estimates Mean” value ([1]; Day 120, POCF, listed as BX30) was −9.68, the “Change from Baseline … Difference to PBO Mean” value ([1]; Day 120, POCF, listed as BX30) was −4.59 and the “Adjusted Mean Change from Baseline in PANSS Total Score, Least Squares Estimates Mean” value ([1]; Day 150, LOCF, listed as BX20) was −0.56. The “Change from Baseline … Difference to PBO Mean” value ([1]; Day 150, LOCF, listed as BX20) was −7.04, the “Adjusted Mean Change from Baseline in PANSS Total Score, Least Squares Estimates Mean” value ([1]; Day 150, LOCF, listed as BX30) was −0.31 and the “Change from Baseline … Difference to PBO Mean” value ([1]; Day 150, LOCF, listed as BX30) was −6.80. For the same compound, the “Adjusted Mean Change from Baseline in PANSS Total Score, Least Squares Estimates Mean” value ([1]; Day 150, OC, listed as BX20) was −16.36, the “Change from Baseline … Difference to PBO Mean” value ([1]; Day 150, OC, listed as BX20) was −1.97 and the “Adjusted Mean Change from Baseline in PANSS Total Score, Least Squares Estimates Mean” value ([1]; Day 150, OC, listed as BX30) was −15.93. For the same compound, the “Change from Baseline … Difference to PBO Mean” value ([1]; Day 150, OC, listed as BX30) was −1.54, the “Adjusted Mean Change from Baseline in PANSS Total Score, Least Squares Estimates Mean” value ([1]; Day 150, POCF, listed as BX20) was −10.40 and the “Change from Baseline … Difference to PBO Mean” value ([1]; Day 150, POCF, listed as BX20) was −5.20. The “Adjusted Mean Change from Baseline in PANSS Total Score, Least Squares Estimates Mean” value ([1]; Day 150, POCF, listed as BX30) was −9.55, the “Change from Baseline … Difference to PBO Mean” value ([1]; Day 150, POCF, listed as BX30) was −4.35 and the “Adjusted Mean Change from Baseline in PANSS Total Score, Least Squares Estimates Mean” value ([1]; Day 180, LOCF, listed as BX20) was −0.81. The “Change from Baseline … Difference to PBO Mean” value ([1]; Day 180, LOCF, listed as BX20) was −7.91, the “Adjusted Mean Change from Baseline in PANSS Total Score, Least Squares Estimates Mean” value ([1]; Day 180, LOCF, listed as BX30) was −0.44 and the “Change from Baseline … Difference to PBO Mean” value ([1]; Day 180, LOCF, listed as BX30) was −7.54. For the same compound, the “Adjusted Mean Change from Baseline in PANSS Total Score, Least Squares Estimates Mean” value ([1]; Day 180, OC, listed as BX20) was −18.09, the “Change from Baseline … Difference to PBO Mean” value ([1]; Day 180, OC, listed as BX20) was −3.60 and the “Adjusted Mean Change from Baseline in PANSS Total Score, Least Squares Estimates Mean” value ([1]; Day 180, OC, listed as BX30) was −18.58. The “Change from Baseline … Difference to PBO Mean” value ([1]; Day 180, OC, listed as BX30) was −4.09, the “Adjusted Mean Change from Baseline in PANSS Total Score, Least Squares Estimates Mean” value ([1]; Day 180, POCF, listed as BX20) was −10.84 and the “Change from Baseline … Difference to PBO Mean” value ([1]; Day 180, POCF, listed as BX20) was −5.43. For the same compound, the “Adjusted Mean Change from Baseline in PANSS Total Score, Least Squares Estimates Mean” value ([1]; Day 180, POCF, listed as BX30) was −9.92, the “Change from Baseline … Difference to PBO Mean” value ([1]; Day 180, POCF, listed as BX30) was −4.52 and the “PANSS total, Adjusted Mean Change from Baseline (LS mean)” value (“PANSS total, Adjusted Mean Change” for short) ([1]; Month 6, LOCF, listed as BX20) was −4.0. The “PANSS total, Adjusted Mean Change” value ([1]; Month 6, LOCF, listed as BX30) was −0.4, the “PANSS total, Adjusted Mean Change” value ([1]; Week 6, LOCF, listed as BX20) was −4.0 and the “PANSS total, Adjusted Mean Change” value ([1]; Week 6, LOCF, listed as BX30) was −2.6. For the same compound, the “PANSS total scores versus PBO, LOCF analysis” value ([1]; both BX groups) was “statistically significantly superior to that in the PBO group from Week 6 onwards”, the half-life ([2]; human, in vivo, po) was 14.4 h and the Tmax ([2]; human, in vivo, oral administration, all dose levels) was 1.5 to 2 h. For the same compound, the half-life ([2]; human, in vivo, oral) was roughly 14 h, the “dose proportionality of multiple-dose PK” value [2] was “dose-proportional in the 20-40 mg/day range” and the “dose proportionality of multiple-dose PK” value ([2]; listed as bifeprunox) was “dose-proportional in the 2040 mg range”. For the same compound, the “age-, gender-, body weight- or race-related effects on PK” value ([2]; pooled analysis) was “No clinically significant age-, gender-, body weight- or race-related effects”, the mean apparent clearance ([2]; steady-state, oral) was 62.2 L/h and the “mean apparent volume of distribution” value ([2]; steady-state, oral) was 1300 L.
